Here are results for 13 compounds from patent US11999727B2 (Tango Therapeutics, Inc., priority 2020, dated 2024).

pIC50: −log10 of the molar value.

The subject of test [1] is HAP1 MTAP-deleted cell line. Put plainly: SDMA in-cell western assay, HAP1 MTAP-deleted. The test is classed as cell-based. Conditions: for pIC50: Homo sapiens, HAP1, SDMA in-cell western, HAP1 MTAP-deleted, read-out: HAP 1 MTAP deleted IC50; for MTAP intact/deleted ratio: IC50 ratio HAP1 MTAP-intact / HAP1 MTAP-deleted, SDMA in-cell western. In short, it runs like this:
(§1)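 Compounds were tested in HAP1 cells differing only in MTAP status (endogenous expression versus null). Cellular SDMA levels were then measured by in-cell western, giving an IC50 in each background.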

Test [2] concerns the target T1, PRMT5 (Homo sapiens, UniProt O14744).
T1 construct: purchased Viva (custom protein)
Put plainly: PRMT5 biochemical IC50 assay with SAM as cofactor. The conditions noted are these: PRMT5, SAM as cofactor; read-out: SAM IC50.

For test [3], the system named is HAP1 MTAP-intact cell line. Put plainly: SDMA in-cell western assay, HAP1 MTAP-intact. The conditions noted are these: Homo sapiens, HAP1, SDMA in-cell western, HAP1 MTAP-intact; read-out: MTAP HAP1 intact IC50. It is filed as cell-based. The method, boiled down: as §1
Test [4] concerns the target T1, PRMT5. Put plainly: PRMT5 biochemical IC50 assay with MTA as cofactor. Conditions: PRMT5, MTA as cofactor; read-out: MTA IC50.
Test [5] deals with HAP1 MTAP-deleted cell line. Nature of the test: Viability assay, MTAP-deleted cell line. The conditions noted are these: Homo sapiens, HAP1, viability, HAP1 MTAP-deleted cell line; read-out: HAP1 MTAP deleted viability. It is filed as cell-based. From the text:
Table 1 additionally indicates IC50 values in a viability assay for the MTAP-deleted cell line (column 10), indicating the effect of treatment with compound on cell survival.

For test [6], the target named is T1, PRMT5. Nature of the test: PRMT5 biochemical IC50 assay with no cofactor. Conditions: PRMT5, no cofactor; read-out: No Cofactor/ rel IC50. From the text: Table 1 indicates IC50 values (μM) against PRMT5 for exemplary compounds in the presence of SAM as cofactor, with no cofactor, and with MTA as cofactor, respectively (columns 4-6). […] Ki values can be calculated from the IC50 values as described in the Examples section. As detailed in the Examples section, for the assay performed in the presence of SAM, IC50=Ki×1.5 (Ki=IC50/1.5).

T1 sequence (O14744 whole entry): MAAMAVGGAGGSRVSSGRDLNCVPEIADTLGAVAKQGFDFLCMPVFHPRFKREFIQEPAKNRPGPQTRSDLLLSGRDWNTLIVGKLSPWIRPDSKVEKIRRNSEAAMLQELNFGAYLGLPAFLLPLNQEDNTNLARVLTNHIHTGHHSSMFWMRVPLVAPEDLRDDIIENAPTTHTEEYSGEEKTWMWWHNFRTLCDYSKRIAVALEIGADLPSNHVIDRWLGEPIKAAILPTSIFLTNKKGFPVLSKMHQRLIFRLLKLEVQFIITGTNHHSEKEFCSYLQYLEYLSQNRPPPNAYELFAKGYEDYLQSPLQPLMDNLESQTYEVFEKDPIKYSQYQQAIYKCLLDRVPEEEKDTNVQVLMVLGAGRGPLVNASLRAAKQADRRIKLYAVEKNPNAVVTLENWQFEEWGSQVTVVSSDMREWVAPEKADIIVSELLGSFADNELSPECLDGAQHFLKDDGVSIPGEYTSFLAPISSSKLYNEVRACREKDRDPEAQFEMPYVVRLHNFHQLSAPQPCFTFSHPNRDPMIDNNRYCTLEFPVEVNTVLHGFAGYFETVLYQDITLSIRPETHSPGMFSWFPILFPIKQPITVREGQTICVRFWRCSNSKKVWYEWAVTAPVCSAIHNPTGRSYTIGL
T1 sequence (Q9BQA1 whole entry partner): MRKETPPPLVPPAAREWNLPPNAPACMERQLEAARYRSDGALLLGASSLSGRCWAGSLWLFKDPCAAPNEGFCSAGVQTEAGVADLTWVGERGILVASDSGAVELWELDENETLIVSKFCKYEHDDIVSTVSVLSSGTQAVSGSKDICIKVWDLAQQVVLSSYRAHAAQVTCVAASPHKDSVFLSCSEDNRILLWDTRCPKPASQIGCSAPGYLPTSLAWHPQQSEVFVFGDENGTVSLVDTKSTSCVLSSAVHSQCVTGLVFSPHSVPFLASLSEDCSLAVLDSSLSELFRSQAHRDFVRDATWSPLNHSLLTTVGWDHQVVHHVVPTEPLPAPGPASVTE

Take `Cc1ncc(NC(=O)C(=O)N2C[C@@H](C)CC[C@@H]2c2ccc3sc(C4CCN(C)CC4)nc3c2)cc1C(F)(F)F` [Compound 1300, 2-((2R,5)-5-methyl-2-(2-(1-methylpiperidin-4-yl)benzo[d]thiazol-5-yl)piperidin-1-yl)-N-(6-methyl-5-(trifluoromethyl)pyridin-3-yl)-2-oxoacetamide]: the pIC50 is greater than 7.00 in test [1]; 6.30 to 7.30 on PRMT5 [2]; 6.00 to 7.00 in test [3]; greater than 7.30 on PRMT5 [4]; greater than 6.00 in test [5]; greater than 7.30 on PRMT5 [6]. Besides, the “MTAP intact/deleted ratio” value in test [1] is recorded as “A (an IC50 ratio greater than or equal to 10 fold)”.

As to `Cc1ncc(NC(=O)C(=O)N2C[C@@H](C)CC[C@@H]2c2ccc3sc(C4CCN(C)CC4)nc3c2)cc1C(F)F` [Compound 1301], the pIC50 in test [1] was greater than 7.00; at PRMT5 [2], greater than 7.30; in test [3], greater than 7.00; at PRMT5 [4], greater than 7.30; in test [5], greater than 6.00; on PRMT5 [6] it was greater than 7.30. The “MTAP intact/deleted ratio” value in test [1] was “A (an IC50 ratio greater than or equal to 10 fold)”.

For the compound `CCc1cc(NC(=O)C(=O)N2C[C@@H](C)CC[C@@H]2c2ccc3sc(CN(C)C(C)C)nc3c2)cnc1N` [Compound 1303, N-(6-amino-5-ethylpyridin-3-yl)-2-((2R,5S)-2-(2-((isopropyl(methyl)amino)methyl)benzo[d]thiazol-5-yl)-5-methylpiperidin-1-yl)-2-oxoacetamide], the pIC50 is greater than 7.00 in test [1]; 6.30 to 7.30 at PRMT5 [2]; 6.00 to 7.00 in test [3]; greater than 7.30 at PRMT5 [4]; greater than 6.00 in test [5]; greater than 7.30 on PRMT5 [6]. Moreover, the “MTAP intact/deleted ratio” value in test [1] is listed as “A (an IC50 ratio greater than or equal to 10 fold)”.

`CCc1cc(NC(=O)C(=O)N2C[C@@H](C)CC[C@@H]2c2ccc3sc(C4CCN(CC(F)F)CC4)nc3c2)cnc1N` [Compound 1304, N-(6-amino-5-ethylpyridin-3-yl)-2-((2R,5S)-2-(2-(1-(2,2-difluoroethyl)piperidin-4-yl)benzo[d]thiazol-5-yl)-5-methylpiperidin-1-yl)-2-oxoacetamide]: the pIC50 in test [1] was greater than 7.00; at PRMT5 [2], greater than 7.30; in test [3], 6.00 to 7.00; on PRMT5 [4], greater than 7.30; in test [5] it was greater than 6.00; at PRMT5 [6], greater than 7.30. For the same compound, in test [1], the “MTAP intact/deleted ratio” value is “A (an IC50 ratio greater than or equal to 10 fold)”.

`CCc1cc(NC(=O)C(=O)N2C[C@@H](C)CC[C@@H]2c2ccc(NC3CCN(C)CC3)nc2)cnc1N` [Compound 1306, N-(6-Amino-5-ethyl-3-pyridyl)-2-[(2R,5S)-5-methyl-2-[6-[(1-methyl-4-piperidyl)amino]-3-pyridyl]-1-piperidyl]-2-oxo-acetamide]: the pIC50 in test [1] was greater than 7.00; on PRMT5 [2] it was 6.30 to 7.30; in test [3], 6.00 to 7.00; at PRMT5 [4], greater than 7.30; in test [5] it was greater than 6.00; at PRMT5 [6], greater than 7.30. Besides, the “MTAP intact/deleted ratio” value in test [1] was “A (an IC50 ratio greater than or equal to 10 fold)”.

In the case of `Cc1ncc(NC(=O)C(=O)N2C[C@@H](C)CC[C@@H]2c2ccc3sc(C4CCN(C)CC4)nc3c2)cc1C1COC1` [Compound 1309, 2-((2R,5S)-5-methyl-2-(2-(1-methylpiperidin-4-yl)benzo[d]thiazol-5-yl)piperidin-1-yl)-N-(6-methyl-5-(oxetan-3-yl)pyridin-3-yl)-2-oxoacetamide], the pIC50 was greater than 7.00 in test [1]; greater than 7.30 on PRMT5 [2]; greater than 7.00 in test [3]; greater than 7.30 at PRMT5 [4]; greater than 6.00 in test [5]; greater than 7.30 on PRMT5 [6]. Also, the “MTAP intact/deleted ratio” value in test [1] was “A (an IC50 ratio greater than or equal to 10 fold)”.

Turning to `Cc1cc(NC(=O)C(=O)N2C[C@@H](C)CC[C@@H]2c2ccc3sc(C4CC(C)(C)N(C)C(C)(C)C4)nc3c2)cnc1C` [Compound 1315, N-(5,6-dimethylpyridin-3-yl)-2-((2R,5S)-5-methyl-2-(2-(1,2,2,6,6-pentamethylpiperidin-4-yl)benzo[d]thiazol-5-yl)piperidin-1-yl)-2-oxoacetamide], the pIC50 is greater than 7.00 in test [1]; greater than 7.30 on PRMT5 [2]; 6.00 to 7.00 in test [3]; greater than 7.30 on PRMT5 [4]; greater than 6.00 in test [5]; greater than 7.30 at PRMT5 [6]. The “MTAP intact/deleted ratio” value in test [1] is listed as “A (an IC50 ratio greater than or equal to 10 fold)”.

With `COc1ncc(NC(=O)C(=O)N2C[C@@H](C)CC[C@@H]2c2ccc3sc(C[C@@H](C)N(C)C)nc3c2)cc1C(N)=O` [Compound 1317, 5-(2-((2R,5S)-2-(2-((R)-2-(dimethylamino)propyl)benzo[d]thiazol-5-yl)-5-methylpiperidin-1-yl)-2-oxoacetamido)-2-methoxynicotinamide], the pIC50 in test [1] is greater than 7.00; at PRMT5 [2], 6.30 to 7.30; in test [3] it was greater than 7.00; at PRMT5 [4] it was greater than 7.30; in test [5] it was greater than 6.00; on PRMT5 [6], greater than 7.30. In test [1], the “MTAP intact/deleted ratio” value is “A (an IC50 ratio greater than or equal to 10 fold)”.

As to `CCc1cc(NC(=O)C(=O)N2C[C@@H](C)CC[C@@H]2c2ccc3nn(C4CCN(C)CC4)cc3c2)cnc1N` [Compound 1321, N-(6-Amino-5-ethyl-3-pyridyl)-2-[(2R,5S)-5-methyl-2-[2-(1-methyl-4-piperidyl)indazol-5-yl]-1-piperidyl]-2-oxo-acetamide], the pIC50 was greater than 7.00 in test [1]; greater than 7.30 at PRMT5 [2]; greater than 7.00 in test [3]; greater than 7.30 at PRMT5 [4]; greater than 6.00 in test [5]; greater than 7.30 on PRMT5 [6]. In addition, the “MTAP intact/deleted ratio” value in test [1] is “A (an IC50 ratio greater than or equal to 10 fold)”.

On to `CCc1cc(NC(=O)C(=O)N2C[C@@H](C)CC[C@@H]2c2ccc3sc([C@@H](C)CN(C)C)nc3c2)cnc1N` [Compound 1324, N-(6-amino-5-ethylpyridin-3-yl)-2-((2R,5S)-2-(2-(1-(dimethylamino)propan-2-yl)benzo[d]thiazol-5-yl)-5-methylpiperidin-1-yl)-2-oxoacetamide], for which the pIC50 in test [1] is greater than 7.00; at PRMT5 [2], greater than 7.30; in test [3] it was greater than 7.00; at PRMT5 [4], greater than 7.30; in test [5], greater than 6.00; on PRMT5 [6] it was greater than 7.30. Further, in test [1], the “MTAP intact/deleted ratio” value is reported as “A (an IC50 ratio greater than or equal to 10 fold)”.

Turning to `CCc1cc(NC(=O)C(=O)N2C[C@@H](C)CC[C@@H]2c2ccc3sc(CN(C)C)nc3c2)cnc1N` [Compound 1325, N-(6-amino-5-ethylpyridin-3-yl)-2-((2R,5S)-2-(2-((dimethylamino)methyl)benzo[d]thiazol-5-yl)-5-methylpiperidin-1-yl)-2-oxoacetamide], the pIC50 is greater than 7.00 in test [1]; 6.30 to 7.30 on PRMT5 [2]; greater than 7.00 in test [3]; greater than 7.30 on PRMT5 [4]; greater than 6.00 in test [5]; greater than 7.30 at PRMT5 [6]. For the same compound, the “MTAP intact/deleted ratio” value in test [1] is “A (an IC50 ratio greater than or equal to 10 fold)”.

In the case of `Cc1ncc(NC(=O)C(=O)N2C[C@@H](C)CC[C@@H]2c2ccc3sc(C4CCN(C)CC4)nc3c2)cc1C(N)=O` [Compound 1326, 2-methyl-5-(2-((2R,5S)-5-methyl-2-(2-(1-methylpiperidin-4-yl)benzo[d]thiazol-5-yl)piperidin-1-yl)-2-oxoacetamido)nicotinamide], the pIC50 in test [1] was greater than 7.00; at PRMT5 [2] it was greater than 7.30; in test [3], 6.00 to 7.00; at PRMT5 [4], greater than 7.30; in test [5], greater than 6.00; on PRMT5 [6] it was greater than 7.30. Besides, in test [1], the “MTAP intact/deleted ratio” value is reported as “A (an IC50 ratio greater than or equal to 10 fold)”.

In the case of `CCc1cc(NC(=O)C(=O)N2C[C@@H](C)CC[C@@H]2c2ccc3sc(C4CCN(C5CC5)CC4)nc3c2)cnc1N` [Compound 1330, N-(6-amino-5-ethylpyridin-3-yl)-2-((2R,5S)-2-(2-(1-cyclopropylpiperidin-4-yl)benzo[d]thiazol-5-yl)-5-methylpiperidin-1-yl)-2-oxoacetamide], the pIC50 in test [1] is greater than 7.00; on PRMT5 [2], greater than 7.30; in test [3] it was greater than 7.00; on PRMT5 [4], greater than 7.30; in test [5] it was greater than 6.00; on PRMT5 [6] it was greater than 7.30. For the same compound, the “MTAP intact/deleted ratio” value in test [1] is recorded as “A (an IC50 ratio greater than or equal to 10 fold)”.
